Test results published in paper PMC10113378, “Synthesis, in vitro α-glucosidase inhibitory activities, and molecular dynamic simulations of novel 4-hydroxyquinolinone-hydrazones as potential antidiabetic agents” (Scientific Reports, 2023).
Where two headings read alike, the source gives them in different places.

Assays:
α-glucosidase [1] = details: cited from earlier work
[2] = target: T1, α-glucosidase enzyme (EC3.2.1.20, Saccharomyces cerevisiae) (Saccharomyces cerevisiae, UniProt P53341); experiment: biochemical; details: mean ± SD; substrate p-nitrophenyl glucopyranoside 4 mM, pH 6.8, 37 °C; read-out: α-Glucosidase inhibition IC50
T1 construct: purchased Sigma-Aldrich
T1 sequence (P53341 whole entry): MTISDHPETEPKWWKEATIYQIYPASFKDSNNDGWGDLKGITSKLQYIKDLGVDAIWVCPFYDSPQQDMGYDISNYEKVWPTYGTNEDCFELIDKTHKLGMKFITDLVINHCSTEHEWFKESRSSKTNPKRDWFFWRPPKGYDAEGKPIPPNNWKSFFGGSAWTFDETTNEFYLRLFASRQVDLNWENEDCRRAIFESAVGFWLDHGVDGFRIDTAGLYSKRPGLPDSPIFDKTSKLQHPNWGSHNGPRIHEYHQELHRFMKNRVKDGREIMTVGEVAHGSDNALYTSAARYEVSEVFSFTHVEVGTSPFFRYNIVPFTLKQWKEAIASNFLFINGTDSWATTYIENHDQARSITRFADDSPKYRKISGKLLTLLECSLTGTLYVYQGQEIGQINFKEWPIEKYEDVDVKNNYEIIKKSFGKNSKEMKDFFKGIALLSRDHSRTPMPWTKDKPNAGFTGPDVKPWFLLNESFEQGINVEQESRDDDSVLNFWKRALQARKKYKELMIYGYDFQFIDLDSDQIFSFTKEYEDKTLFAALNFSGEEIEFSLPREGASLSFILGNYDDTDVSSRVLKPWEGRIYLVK
Procedure: α-glucosidase enzyme (EC3.2.1.20, Saccharomyces cerevisiae, 20 U/mg) and substrate (p-nitrophenyl glucopyranoside) were purchased from Sigma-Aldrich. 1 mg of α-glucosidase was dissolved in potassium phosphate buffer (50 mM, pH = 6.8) to obtain the initial activity of 1 U/ml. Then, 20 µl of this enzyme solution was incubated with 135 µl of potassium phosphate buffer and 20 µl of test compound at various concentrations in DMSO. […] The percentage of inhibition for each entry was calculated by using the following formula: %Inhibition=Abscontrol-Abssample/Abscontrol×100.
IC50 values were obtained from the nonlinear regression curve using the Logit method[28],[29].

α-glucosidase [3] = target: T2, α-glucosidase (Saccharomyces cerevisiae, UniProt P53341); experiment: Enzyme kinetic studies (Lineweaver–Burk plot, secondary plot); format: biochemical; details: for mode of inhibition: Lineweaver–Burk plot, Km increased, Vmax unchanged; for Ki: from plot of Km versus inhibitor concentration, read-out: inhibition constant, Ki
T2 construct: purchased Sigma-Aldrich
T2 sequence (P53341 whole entry): as above
Procedure: A Lineweaver–Burk plot was generated to identify the type of inhibition and the Michaelis–Menten constant (Km) value was determined from the plot between the reciprocal of the substrate concentration (1/[S]) and reciprocal of enzyme rate (1/V) over various inhibitors concentrations[30],[31].

SMILES: Oc1ccc2ccccc2n1 [A, 2-hydroxyquinoline]
- IC50 (α-glucosidase [1]; Fig. 1): 64.4 ± 1.7 µg/mL

SMILES: C[C@H]1O[C@H](O[C@H]2[C@H](O)[C@@H](O)[C@@H](O[C@H]3[C@H](O)[C@@H](O)C(O)O[C@@H]3CO)O[C@@H]2CO)[C@H](O)[C@@H](O)[C@@H]1N[C@H]1C=C(CO)[C@@H](O)[C@H](O)[C@H]1O (some centres unmarked) [Acarbose]
- α-glucosidase inhibition (α-glucosidase [1]; at 128 μg/mL): 75.55%

SMILES: O=C(N/N=C/c1ccc(O)c(O)c1)c1ccc(-c2nnc(-c3ccc4ncccc4c3)o2)cc1 [C]
- IC50 (α-glucosidase [1]; quinoline–oxadiazole Schiff bases, read-out: IC50): 2.6 ± 0.01 µM

SMILES: O=C(N/N=C/c1ccccc1)c1c(O)nc2ccccc2c1O [Compound 6a, (E)-N'-benzylidene-4-hydroxy-2-oxo-1,2-dihydroquinoline-3-carbohydrazide]
- IC50 [2]: 382.6 ± 0.9 µM

SMILES: O=C(N/N=C/c1ccccc1F)c1c(O)c2ccccc2[nH]c1=O [Compound 6b, (E)-N'-(2-fluorobenzylidene)-4-hydroxy-2-oxo-1,2-dihydroquinoline-3-carbohydrazide]
- melting point: 190 to 192 °C
- IC50 [2]: 247 ± 1.1 µM

SMILES: O=C(N/N=C/c1ccc(F)cc1)c1c(O)nc2ccccc2c1O [Compound 6c, (E)-N'-(4-fluorobenzylidene)-4-hydroxy-2-oxo-1,2-dihydroquinoline-3-carbohydrazide]
- IC50 [2]: 195.3 ± 1.2 µM

SMILES: O=C(N/N=C/c1ccc(Cl)cc1)c1c(O)c2ccccc2[nH]c1=O [Compound 6d, (E)-N'-(4-chlorobenzylidene)-4-hydroxy-2-oxo-1,2-dihydroquinoline-3-carbohydrazide]
- melting point: 194 to 196 °C
- IC50 [2]: 131.6 ± 0.3 µM

SMILES: O=C(N/N=C/c1cccc(Br)c1)c1c(O)c2ccccc2[nH]c1=O [Compound 6e, (E)-N'-(3-bromobenzylidene)-4-hydroxy-2-oxo-1,2-dihydroquinoline-3-carbohydrazide]
- melting point: 187 to 189 °C
- IC50 [2]: 436.7 ± 1 µM

SMILES: O=C(N/N=C/c1ccc(Br)cc1)c1c(O)c2ccccc2[nH]c1=O [Compound 6f, (E)-N'-(4-bromobenzylidene)-4-hydroxy-2-oxo-1,2-dihydroquinoline-3-carbohydrazide]
- melting point: 179 to 181 °C
- IC50 [2]: 520.2 ± 1.5 µM

SMILES: O=C(N/N=C/c1ccc([N+](=O)[O-])cc1)c1c(O)c2ccccc2[nH]c1=O [Compound 6g, (E)-4-hydroxy-N'-(4-nitrobenzylidene)-2-oxo-1,2-dihydroquinoline-3-carbohydrazide]
- melting point: 208 to 210 °C
- IC50 [2]: 120.5 ± 0.8 µM

SMILES: Cc1ccc(/C=N/NC(=O)c2c(O)c3ccccc3[nH]c2=O)cc1 [Compound 6h, (E)-4-hydroxy-N'-(4-methylbenzylidene)-2-oxo-1,2-dihydroquinoline-3-carbohydrazide]
- melting point: 180 to 182 °C
- IC50 [2]: 136.7 ± 0.5 µM

SMILES: COc1ccc(/C=N/NC(=O)c2c(O)c3ccccc3[nH]c2=O)cc1 [Compound 6i, (E)-4-hydroxy-N'-(4-methoxybenzylidene)-2-oxo-1,2-dihydroquinoline-3-carbohydrazide]
- melting point: 189 to 191 °C
- IC50 [2]: 259 ± 1 µM

SMILES: O=C(N/N=C/c1ccccc1O)c1c(O)c2ccccc2[nH]c1=O [Compound 6j, (E)-4-hydroxy-N'-(2-hydroxybenzylidene)-2-oxo-1,2-dihydroquinoline-3-carbohydrazide]
- melting point: 177 to 179 °C
- IC50 [2]: 154.8 ± 0.1 µM

SMILES: O=C(N/N=C/c1cccc(O)c1)c1c(O)c2ccccc2[nH]c1=O [Compound 6k, (E)-4-hydroxy-N'-(3-hydroxybenzylidene)-2-oxo-1,2-dihydroquinoline-3-carbohydrazide]
- melting point: 186 to 188 °C
- IC50 [2]: 196.3 ± 0.7 µM

SMILES: O=C(N/N=C/c1cc(Br)ccc1O)c1c(O)c2ccccc2[nH]c1=O [Compound 6l, (E)-N'-(5-bromo-2-hydroxybenzylidene)-4-hydroxy-2-oxo-1,2-dihydroquinoline-3-carbohydrazide]
- melting point: 171 to 173 °C
- IC50 [2]: 94.2 ± 1 µM
- mode of inhibition (α-glucosidase [3]): competitive inhibition
- Ki (α-glucosidase [3]): 92 µM

SMILES: O=C(N/N=C/c1cc([N+](=O)[O-])ccc1O)c1c(O)c2ccccc2[nH]c1=O [Compound 6m, (E)-4-hydroxy-N'-(2-hydroxy-5-nitrobenzylidene)-2-oxo-1,2-dihydroquinoline-3-carbohydrazide]
- melting point: 198 to 200 °C
- IC50 [2]: 93.5 ± 0.6 µM
- mode of inhibition (α-glucosidase [3]): competitive inhibition
- Ki (α-glucosidase [3]): 93 µM

SMILES: O=C(N/N=C/c1ccc(O)cc1O)c1c(O)c2ccccc2[nH]c1=O [Compound 6n, (E)-N'-(2,4-dihydroxybenzylidene)-4-hydroxy-2-oxo-1,2-dihydroquinoline-3-carbohydrazide]
- melting point: 185 to 187 °C
- IC50 [2]: 187.8 ± 0.3 µM

SMILES: COc1cc(/C=N/NC(=O)c2c(O)c3ccccc3[nH]c2=O)ccc1O [Compound 6o, (E)-4-hydroxy-N'-(4-hydroxy-3-methoxybenzylidene)-2-oxo-1,2-dihydroquinoline-3-carbohydrazide]
- melting point: 193 to 195 °C
- IC50 [2]: 575.6 ± 0.4 µM

SMILES: O=C(N/N=C/c1ccc(O)c(O)c1)c1ccc2ncccc2c1 [D]
- IC50 (α-glucosidase [1]; quinoline derivatives, read-out: IC50): 6.2 ± 0.3 µM

SMILES: O=C(Cc1ccc(Cl)cc1Cl)N/N=C1/C(=O)Nc2cc(Br)ccc21 [E]
- IC50 (α-glucosidase [1]; isatin-hydrazone structure, recent research (reference number not given), read-out: IC50): 2.2 ± 0.25 µM

SMILES: O=C(N/N=C/c1c(O)cc(O)cc1O)c1ccc(-c2cc(=O)c3ccccc3o2)cc1 [F]
- IC50 (α-glucosidase [1]; flavone-hydrazone, read-out: IC50): 15.4 ± 0.22 µM

SMILES: O=C(N/N=C/c1ccc(Cl)cc1)c1ccc(-c2nc3ccccc3s2)cc1 [G]
- IC50 (α-glucosidase [1]; benzothiazole-bearing benzohydrazide, read-out: IC50): 5.31 ± 0.03 µM

SMILES: O=C(N/N=C/c1cccc(F)c1)c1ccc2nc(-c3ccccc3)c(-c3ccccc3)nc2c1 [H]
- mode of inhibition (α-glucosidase [1]): competitive mode of inhibition
- IC50 (α-glucosidase [1]; read-out: IC50): 111 µM
